# From patent publication US20100292266A1, “Oxazolyl Piperidine Modulators of Fatty Acid Amide Hydrolase” (priority 2006, published 2010)
# Target: T1, FAAH (Homo sapiens, UniProt O00519)
# T1 sequence (O00519 1-579): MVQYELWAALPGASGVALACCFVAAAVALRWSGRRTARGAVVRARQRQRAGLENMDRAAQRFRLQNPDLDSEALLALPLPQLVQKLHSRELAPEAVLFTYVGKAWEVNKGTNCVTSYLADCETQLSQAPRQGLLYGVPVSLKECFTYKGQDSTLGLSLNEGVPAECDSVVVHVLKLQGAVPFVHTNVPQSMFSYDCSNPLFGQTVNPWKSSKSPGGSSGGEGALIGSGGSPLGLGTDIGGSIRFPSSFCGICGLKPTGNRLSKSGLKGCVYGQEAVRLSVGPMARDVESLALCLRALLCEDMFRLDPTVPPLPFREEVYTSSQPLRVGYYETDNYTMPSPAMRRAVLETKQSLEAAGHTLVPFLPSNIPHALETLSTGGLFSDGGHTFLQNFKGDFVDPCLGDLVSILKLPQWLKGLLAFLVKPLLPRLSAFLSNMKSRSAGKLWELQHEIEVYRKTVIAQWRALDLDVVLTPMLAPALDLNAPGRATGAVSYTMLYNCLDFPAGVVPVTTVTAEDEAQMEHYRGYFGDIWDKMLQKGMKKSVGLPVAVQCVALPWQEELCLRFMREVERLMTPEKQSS
# Assay: Assay Method 1: FAAH assay, 3H-anandamide hydrolysis in cell homogenate
# Format: biochemical
# Design: expressed in transfected cells
# Conditions: T84 or transfected SK-N-MC cell homogenate, 80 nM 3H-AEA, 1 h rt, > = solubility limit or highest concentration tested
# Experimental: A. Transfection of Cells with Human FAAH
# (§1) A 10-cm tissue culture dish with a confluent monolayer of SK-N-MC cells was split 2 days (d) prior to transfection. Using sterile technique, the media was removed and the cells were detached from the dish by the addition of trypsin. One fifth of the cells were then placed onto a new 10-cm dish. Cells were grown in a 37° C. incubator with 5% CO2 in Minimal Essential Media Eagle with 10% Fetal Bovine Serum. After 2 d, cells were approximately 80% confluent. These cells were removed from the dish with trypsin and pelleted in a clinical centrifuge. The pellet was re-suspended in 400 μL complete media and transferred to an electroporation cuvette with a 0.4 cm gap between the electrodes. Supercoiled human FAAH cDNA (1 μg) was added to the cells and mixed. The voltage for the electroporation was set at 0.25 kV, and the capacitance was set at 960 μF. After electroporation, the cells were diluted into complete media (10 mL) and plated onto four 10-cm dishes. Because of the variability in the efficiency of electroporation, four different concentrations of cells were plated. The ratios used were 1:20, 1:10, and 1:5, with the remainder of the cells being added to the fourth dish. The cells were allowed to recover for 24 h before adding the selection media (complete media with 600 μg/mL G418). After 10 d, dishes were analyzed for surviving colonies of cells. Dishes with well-isolated colonies were used. Cells from individual colonies were isolated and tested.
# (§2) The assay mixture consisted of 50 μL of the cell homogenate, 10 μL of the test compound, and 40 μL of anandamide [1-^3H-ethanolamine] (^3H-AEA, Perkin-Elmer, 10.3 Ci/mmol), which was added last, for a final tracer concentration of 80 nM. The reaction mixture was incubated at rt for 1 h. During the incubation, 96-well Multiscreen filter plates (catalog number MAFCNOB50; Millipore, Bedford, Mass., USA) were loaded with 25 μL of activated charcoal (Multiscreen column loader, catalog number MACL09625, Millipore) and washed once with 100 μL of MeOH. Also during the incubation, 96-well DYNEX MicroLite plates (catalog number NL510410) were loaded with 100 μL of MicroScint40 (catalog number 6013641, Packard Bioscience, Meriden, Conn., USA). After the 1 h incubation, 60 μL of the reaction mixture were transferred to the charcoal plates, which were then assembled on top of the DYNEX plates using Centrifuge Alignment Frames (catalog number MACF09604, Millipore). The unbound labeled ethanolamine was centrifuged through to the bottom plate (5 min at 2000 rpm), which was preloaded with the scintillant, as described above. The plates were sealed and left at rt for 1 h before counting on a Hewlett Packard TopCount.
# (§3) Where activity is shown as greater than (>) a particular value, the value is the solubility limit of the compound in the assay medium or the highest concentration tested in the assay.
row,Compound,IC50
1,"CC(C)COc1cccc(CN2CCC(C(=O)c3ncco3)CC2)c1 [Example 16, [1-(3-Isobutoxy-benzyl)-piperidin-4-yl]-oxazol-2-yl-methanone]",31 nM
2,"O=C(c1ncco1)C1CCN(Cc2ccc3c(c2)OC(F)(F)O3)CC1 [Example 71, [1-(2,2-Difluoro-benzo[1,3]dioxol-5-ylmethyl)-piperidin-4-yl]-oxazol-2-yl-methanone]",27 nM
3,"O=C(c1ncco1)C1CCN(Cc2cc3ccccc3s2)CC1 [Example 54, (1-Benzo[b]thoiphen-2-ylmethyl-piperidin-4-yl)-oxazol-2-yl-methanone]",2 nM
4,"Cc1ccc2cc(CN3CCC(C(=O)c4ncco4)CC3)c(Cl)nc2c1 [Example 69, [1-(2-Chloro-7-methyl-quinolin-3-ylmethyl)-piperidin-4-yl]-oxazol-2-yl-methanone]",585 nM
5,"O=C(c1ncco1)C1CCN(S(=O)(=O)c2ccc3ccccc3c2)CC1 [Example 1, [1-(Naphthalene-2-sulfonyl)-piperidin-4-yl]-oxazol-2-yl-methanone]",100 nM
6,"CC(c1cccc(C(F)(F)F)c1)N1CCC(C(=O)c2ncco2)CC1 (stereo not shown) [Example 91, Oxazol-2-yl-{1-[1-(3-trifluoromethyl-phenyl)-ethyl]-piperidin-4-yl}-methanone]",782 nM
7,"O=C(c1ncco1)C1CCN(S(=O)(=O)c2cccc(Cl)c2)CC1 [Example 5, [1-(3-Chloro-benzenesulfonyl)-Diperidin-4-yl]-oxazol-2-yl-methanone]",8000 nM
8,"O=C(c1ncco1)C1CCN(Cc2cccc(OC3CCCCC3)c2)CC1 [Example 22, [1-(3-Cyclohexyloxy-benzyl)-piperidin-4-yl]-oxazol-2-yl-methanone]",12 nM
9,"O=C(c1ncco1)C1CCN(Cc2cccc(Oc3ccccc3)c2)CC1 [Example 56, Oxazol-2-yl-[1-(3-phenoxy-benzyl)-piperidin-4-yl]-methanone]",28 nM
10,"O=C(c1ncco1)C1CCN(Cc2ccc3c(c2)OCO3)CC1 [Example 15, (1-Benzo[1,3]dioxol-5-ylmethyl-piperidin-4-yl)-oxazol-2-yl-methanone]",113 nM
11,"O=C(c1ncco1)C1CCN(Cc2ccc(OC(F)(F)F)cc2)CC1 [Example 36, Oxazol-2-yl-[1-(4-trifluoromethoxy-benzyl)-piperidin-4-yl]-methanone]",25 nM
12,"COc1ccccc1C(=O)N1CCC(C(=O)c2ncco2)CC1 [Example 8, [1-(2-Methoxy-benzoyl)-piperidin-4-yl]-oxazol-2-yl-methanone]",> 10000 nM

# The next lines start with the values.
row,IC50,Compound
1,5 nM,"O=C(c1ncco1)C1CCN(Cc2ccc(Cl)c(Cl)c2)CC1 [Example 44, [1-(3,4-Dichloro-benzyl)-piperidin-4-yl]-oxazol-2-yl-methanone]"
2,5000 nM,"CC(C)Oc1ccc(CN2CCC(C(=O)c3ncco3)CC2)cc1 [Example 23, [1-(4-Isopropoxy-benzyl)-piperidin-4-yl]-oxazol-2-yl-methanone]"
3,640 nM,"Cc1cccc(CN2CCC(C(=O)c3ncco3)CC2)n1 [Example 83, [1-(6-Methyl-pyridin-2-ylmethyl)-piperidin-4-yl]-oxazol-2-yl-methanone]"
4,13 nM,"O=C(c1ncco1)C1CCN(Cc2ccc3ccccc3n2)CC1 [Example 84, Oxazol-2-yl-(1-quinolin-2-ylmethyl-piperidin-4-yl)-methanone]"
5,1300 nM,"O=C(c1ncco1)C1CCN(Cc2ccccn2)CC1 [Example 60, Oxazol-2-yl-(1-pyridin-2-ylmethyl-piperidin-4-yl)-methanone]"
6,51 nM,"O=C(c1ncco1)C1CCN(Cc2cccc(C(F)(F)F)c2)CC1 [Example 18, Oxazol-2-yl-[1-(3-trifluoromethyl-benzyl)-piperidin-4-yl]-methanone]"
7,78 nM,"O=C(c1ncco1)C1CCN(Cc2cccc(Cl)c2)CC1 [Example 34, [1-(3-Chloro-benzyl)-piperidin-4-yl]-oxazol-2-yl-methanone]"
8,3 nM,"O=C(c1ncco1)C1CCN(Cc2ccc3ccc(Cl)cc3n2)CC1 [Example 76, [1-(7-Chloro-quinolin-2-ylmethyl)-piperidin-4-yl]-oxazol-2-yl-methanone]"

# Target: T2, Rat FAAH (Rattus norvegicus, UniProt P97612)
# T2 construct: expressed in transfected cells
# T2 sequence (P97612 1-579): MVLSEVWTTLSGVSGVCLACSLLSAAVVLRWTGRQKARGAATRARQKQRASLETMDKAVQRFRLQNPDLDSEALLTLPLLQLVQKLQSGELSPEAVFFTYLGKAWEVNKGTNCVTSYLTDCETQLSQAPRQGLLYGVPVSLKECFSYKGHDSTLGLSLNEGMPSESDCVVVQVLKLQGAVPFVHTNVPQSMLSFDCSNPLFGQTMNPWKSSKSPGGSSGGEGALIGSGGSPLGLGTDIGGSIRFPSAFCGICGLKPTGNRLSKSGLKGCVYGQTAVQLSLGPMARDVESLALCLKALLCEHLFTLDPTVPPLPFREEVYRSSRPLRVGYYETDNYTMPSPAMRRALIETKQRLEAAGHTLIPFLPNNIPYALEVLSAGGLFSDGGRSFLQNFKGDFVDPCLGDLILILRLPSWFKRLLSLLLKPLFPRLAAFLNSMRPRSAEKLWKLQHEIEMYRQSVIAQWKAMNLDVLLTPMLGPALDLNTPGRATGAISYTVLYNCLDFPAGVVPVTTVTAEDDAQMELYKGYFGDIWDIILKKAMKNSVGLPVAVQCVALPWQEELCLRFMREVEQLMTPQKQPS
# Assay: Assay Method 2: FAAH assay, 3H-anandamide hydrolysis in cell homogenate
# Format: biochemical
# Conditions: transfected SK-N-MC cell homogenate, 80 nM 3H-AEA, 1 h rt, > = solubility limit or highest concentration tested
# Experimental: A. Transfection of Cells with Rat FAAH
# as §1, with “rat” for “human”
# as §2, with “incubated at […] for 1” for “incubated at rt for 1”, “labeled ethanolamine . was centrifuged” for “labeled ethanolamine was centrifuged”
# as §3
row,Compound,IC50
1,"CC(C)COc1cccc(CN2CCC(C(=O)c3ncco3)CC2)c1 [Example 16, [1-(3-Isobutoxy-benzyl)-piperidin-4-yl]-oxazol-2-yl-methanone]",975 nM
2,"O=C(c1ncco1)C1CCN(Cc2ccc3c(c2)OC(F)(F)O3)CC1 [Example 71, [1-(2,2-Difluoro-benzo[1,3]dioxol-5-ylmethyl)-piperidin-4-yl]-oxazol-2-yl-methanone]",24 nM
3,"O=C(c1ncco1)C1CCN(Cc2cc3ccccc3s2)CC1 [Example 54, (1-Benzo[b]thoiphen-2-ylmethyl-piperidin-4-yl)-oxazol-2-yl-methanone]",9 nM
4,"Cc1ccc2cc(CN3CCC(C(=O)c4ncco4)CC3)c(Cl)nc2c1 [Example 69, [1-(2-Chloro-7-methyl-quinolin-3-ylmethyl)-piperidin-4-yl]-oxazol-2-yl-methanone]",470 nM
5,"O=C(c1ncco1)C1CCN(S(=O)(=O)c2ccc3ccccc3c2)CC1 [Example 1, [1-(Naphthalene-2-sulfonyl)-piperidin-4-yl]-oxazol-2-yl-methanone]",1000 nM
6,"CC(c1cccc(C(F)(F)F)c1)N1CCC(C(=O)c2ncco2)CC1 (stereo not shown) [Example 91, Oxazol-2-yl-{1-[1-(3-trifluoromethyl-phenyl)-ethyl]-piperidin-4-yl}-methanone]",370 nM
7,"O=C(c1ncco1)C1CCN(S(=O)(=O)c2cccc(Cl)c2)CC1 [Example 5, [1-(3-Chloro-benzenesulfonyl)-Diperidin-4-yl]-oxazol-2-yl-methanone]",8000 nM
8,"O=C(c1ncco1)C1CCN(Cc2cccc(OC3CCCCC3)c2)CC1 [Example 22, [1-(3-Cyclohexyloxy-benzyl)-piperidin-4-yl]-oxazol-2-yl-methanone]",790 nM
9,"O=C(c1ncco1)C1CCN(Cc2cccc(Oc3ccccc3)c2)CC1 [Example 56, Oxazol-2-yl-[1-(3-phenoxy-benzyl)-piperidin-4-yl]-methanone]",132 nM
10,"O=C(c1ncco1)C1CCN(Cc2ccc3c(c2)OCO3)CC1 [Example 15, (1-Benzo[1,3]dioxol-5-ylmethyl-piperidin-4-yl)-oxazol-2-yl-methanone]",582 nM
11,"O=C(c1ncco1)C1CCN(Cc2ccc(OC(F)(F)F)cc2)CC1 [Example 36, Oxazol-2-yl-[1-(4-trifluoromethoxy-benzyl)-piperidin-4-yl]-methanone]",40 nM
12,"COc1ccccc1C(=O)N1CCC(C(=O)c2ncco2)CC1 [Example 8, [1-(2-Methoxy-benzoyl)-piperidin-4-yl]-oxazol-2-yl-methanone]",> 10000 nM

# Results, then the molecule that gave them:
row,IC50,Compound
1,5 nM,"O=C(c1ncco1)C1CCN(Cc2ccc(Cl)c(Cl)c2)CC1 [Example 44, [1-(3,4-Dichloro-benzyl)-piperidin-4-yl]-oxazol-2-yl-methanone]"
2,> 10000 nM,"CC(C)Oc1ccc(CN2CCC(C(=O)c3ncco3)CC2)cc1 [Example 23, [1-(4-Isopropoxy-benzyl)-piperidin-4-yl]-oxazol-2-yl-methanone]"
3,3000 nM,"Cc1cccc(CN2CCC(C(=O)c3ncco3)CC2)n1 [Example 83, [1-(6-Methyl-pyridin-2-ylmethyl)-piperidin-4-yl]-oxazol-2-yl-methanone]"
4,23 nM,"O=C(c1ncco1)C1CCN(Cc2ccc3ccccc3n2)CC1 [Example 84, Oxazol-2-yl-(1-quinolin-2-ylmethyl-piperidin-4-yl)-methanone]"
5,> 10000 nM,"O=C(c1ncco1)C1CCN(Cc2ccccn2)CC1 [Example 60, Oxazol-2-yl-(1-pyridin-2-ylmethyl-piperidin-4-yl)-methanone]"
6,96 nM,"O=C(c1ncco1)C1CCN(Cc2cccc(C(F)(F)F)c2)CC1 [Example 18, Oxazol-2-yl-[1-(3-trifluoromethyl-benzyl)-piperidin-4-yl]-methanone]"
7,300 nM,"O=C(c1ncco1)C1CCN(Cc2cccc(Cl)c2)CC1 [Example 34, [1-(3-Chloro-benzyl)-piperidin-4-yl]-oxazol-2-yl-methanone]"
8,8 nM,"O=C(c1ncco1)C1CCN(Cc2ccc3ccc(Cl)cc3n2)CC1 [Example 76, [1-(7-Chloro-quinolin-2-ylmethyl)-piperidin-4-yl]-oxazol-2-yl-methanone]"
